Laboratory results reported in PMC12485897, “Characterization of the thermophilic xylanase Fsa02490Xyn from the hyperthermophile Fervidibacter sacchari belonging to glycoside hydrolase family 10” (FEBS Open Bio, 2025).

Tested on: T1, Fsa02490Xyn
T1 construct: TAT signal peptide removed (mature 430 residues, 48 kDa); N-terminal 6xHis tag, GB1 solubility tag and TEV site kept (~53 kDa expected); codon-optimized, pET21b, E. coli T7 Express; monomer
Assay: para-nitrophenol release, absorbance […] nm; Lineweaver-Burk plot
Format: biochemical, Fervidibacter sacchari
Conditions: pH 7.5, 90 °C, 11 min, 0.697 μM enzyme

Km: 2380 µM
Compound: O=[N+]([O-])c1ccc(O[C@@H]2OC[C@@H](O[C@@H]3OC[C@@H](O)[C@H](O)[C@H]3O)[C@H](O)[C@H]2O)cc1 [pNPX2]
